According to patent US6914045B2, “Glycopeptide antibiotics” (Wyeth Holdings Corporation, priority 2001, dated 2005):
Converted amounts (≈) assume the structure as drawn.

What was measured:
Test in all cases: in vitro antibacterial evaluation, MIC by broth dilution
Type in all cases: cell-based
[1] = test system: Enterococcus sp.; settings: broth dilution, 18 hours at 35° C.
Method: (§1) Methods for in vitro Antibacterial Evaluation (Table 1)
(§2) The minimum inhibitory concentration (MIC), the lowest concentration of the antibiotic which inhibits growth of the test organism, is determined by the broth dilution method using Muller-Hinton II […] (Baltimore Biological Laboratories) following the recommendations of the National Committee for Clinical Laboratory Standards [Methods for dilution antimicrobial susceptibility tests for bacteria that grow aerobically, approved standard M7-A2, National Committee for Clinical Laboratory Standards, Villanova, Pa.].
(§3) An inoculum level of 5×10^5 CFU/mL, and a range of antibiotic concentrations (64-0.06 μg/mL) is used. […] The test organisms include a spectrum of Gram-positive bacteria comprised of Staphylococcus sp., Streptococcus sp. and Enterococcus sp. These organisms include recent clinical isolates that are resistant to methicillin, penicillin and/or vancomycin.

[2] = test system: Staphylococcus sp.; settings: broth dilution, 18 hours at 35° C.; for MIC Staphylococcus aureus (ATCC 29213): strain ATCC 29213; for MIC Staphylococcus aureus (GC 1131): strain GC 1131; for MIC Staphylococcus aureus (GC 4535): strain GC 4535; for MIC Staphylococcus aureus-SMITH (GC 4536): strain GC 4536
Method: as §1, §2, §3

[3] = test system: Escherichia coli; settings: 18 hours at 35° C.
Method: as §2, §3

[4] = Enterococcus faecalis (ATCC 29212)
[5] = Enterococcus faecalis (GC 2242)
[6] = Enterococcus faecalis (GC 4552)

SMILES	MIC Enterococcus faecalis (ATCC 29212) [1, 4]	MIC Enterococcus faecalis (GC 2242) [1, 5]	MIC Enterococcus faecalis (GC 4552) [1, 6]	MIC Enterococcus faecalis (ATCC 29212) [1]	MIC Enterococcus faecalis (GC 2242) [1]	MIC Enterococcus faecalis (GC 4552) [1]	MIC Coagulase Negative Staphylococcus (GC 4537) [2]	MIC Coagulase Negative Staphylococcus (GC 4538) [2]	MIC Coagulase Negative Staphylococcus (GC 4547) [2]	MIC Coagulase Negative Staphylococcus (GC 4537) ([2]; strain GC 4537)	MIC Coagulase Negative Staphylococcus (GC 4538) ([2]; strain GC 4538)	MIC Coagulase Negative Staphylococcus (GC 4547) ([2]; strain GC 4547)	MIC Staphylococcus aureus (ATCC 29213) [2]	MIC Staphylococcus aureus (GC 1131) [2]	MIC Staphylococcus aureus (GC 4535) [2]	MIC Staphylococcus aureus-SMITH (GC 4536) [2]	MIC Escherichia coli (GC 4559) [3]	MIC Escherichia coli (GC 4560) [3]
CCCCCCC(=O)OCC1OC(Oc2ccc(CC3NC(=O)C(C(C)c4ccccc4)NC(=O)CNC(=O)C(CO)NC(=O)C(C(O)C4CNC(=N)N4C4OC(CO)C(O)C(O)C4O)NC(=O)C(C(O)C4CNC(=N)N4)NC3=O)cc2)C(O)C(O)C1OC1OC(CO)C(O)C(O)C1O (stereo not drawn) [Example 97a, Cyclo[glycyl-β-methylphenylalanyl-O-(6-O-heptanoyl-4-O-hexopyranosylhexopyranosyl)-tyrosyl-3-(2-iniinoimidazolidin-4-yl)seryl-3-(3-hexopyranosyl-2-iminoimidazolidin-4-yl)-serylseryl]]	8 µg/mL (≈ 5.68 µM)	4 µg/mL (≈ 2.84 µM)	16 µg/mL (≈ 11.4 µM)	8 µg/mL (≈ 5.68 µM)	4 µg/mL (≈ 2.84 µM)	16 µg/mL (≈ 11.4 µM)	4 µg/mL (≈ 2.84 µM)	2 µg/mL (≈ 1.42 µM)	2 µg/mL (≈ 1.42 µM)	4 µg/mL (≈ 2.84 µM)	2 µg/mL (≈ 1.42 µM)	2 µg/mL (≈ 1.42 µM)	1 µg/mL (≈ 0.711 µM)	2 µg/mL (≈ 1.42 µM)	2 µg/mL (≈ 1.42 µM)	0.5 µg/mL (≈ 0.355 µM)	>64 µg/mL	1 µg/mL (≈ 0.711 µM)
CC(c1ccccc1)C1NC(=O)CNC(=O)C(CO)NC(=O)C(C(O)C2CNC(=N)N2C2OC(CO)C(O)C(O)C2O)NC(=O)C(C(O)C2CNC(=N)N2)NC(=O)C(Cc2ccc(OC3OC(COC(=O)Cc4ccccc4)C(OC4OC(CO)C(O)C(O)C4O)C(O)C3O)cc2)NC1=O (stereo not drawn) [Example 98b]	64 µg/mL (≈ 45.3 µM)	64 µg/mL (≈ 45.3 µM)	128 µg/mL (≈ 90.6 µM)	64 µg/mL (≈ 45.3 µM)	64 µg/mL (≈ 45.3 µM)	128 µg/mL (≈ 90.6 µM)	16 µg/mL (≈ 11.3 µM)	8 µg/mL (≈ 5.66 µM)	8 µg/mL (≈ 5.66 µM)	16 µg/mL (≈ 11.3 µM)	8 µg/mL (≈ 5.66 µM)	8 µg/mL (≈ 5.66 µM)	16 µg/mL (≈ 11.3 µM)	16 µg/mL (≈ 11.3 µM)	16 µg/mL (≈ 11.3 µM)	8 µg/mL (≈ 5.66 µM)	>128 µg/mL	2 µg/mL (≈ 1.42 µM)
CC(c1ccccc1)C1NC(=O)CNC(=O)C(CO)NC(=O)C(C(O)C2CNC(=N)N2C2OC(CO)C(O)C(O)C2O)NC(=O)C(C(O)C2CNC(=N)N2)NC(=O)C(Cc2ccc(OC3OC(CO)C(OC4OC(COC(=O)Cc5ccccc5)C(O)C(O)C4O)C(O)C3O)cc2)NC1=O (stereo not drawn) [Example 98c]	16 µg/mL (≈ 11.3 µM)	8 µg/mL (≈ 5.66 µM)	16 µg/mL (≈ 11.3 µM)	16 µg/mL (≈ 11.3 µM)	8 µg/mL (≈ 5.66 µM)	16 µg/mL (≈ 11.3 µM)	2 µg/mL (≈ 1.42 µM)	1 µg/mL (≈ 0.708 µM)	1 µg/mL (≈ 0.708 µM)	2 µg/mL (≈ 1.42 µM)	1 µg/mL (≈ 0.708 µM)	1 µg/mL (≈ 0.708 µM)	2 µg/mL (≈ 1.42 µM)	2 µg/mL (≈ 1.42 µM)	4 µg/mL (≈ 2.83 µM)	2 µg/mL (≈ 1.42 µM)	64 µg/mL (≈ 45.3 µM)	0.5 µg/mL (≈ 0.354 µM)
